Our source for the IC50 and appearance and behaviour values is patent US5767139A, “Indoles which have steroid 5-α reductase inhibitory activity” (Pfizer, Inc., priority 1992, dated 1998).

SMILES strings stand for the structures.

One data set deals with steroid 5α-reductase. Nature of the data set: in vitro steroid 5α-reductase inhibitory activity using ventral prostate tissue from male rats. In kind it is biochemical. To be noted: rat ventral prostate particulate; [3H]-testosterone substrate, pH 6.5, 37° C., 30 minutes. The source says: The compounds of the formula (I) may be tested in vitro for steroid 5α-reductase inhibitory activity using prostate tissue from rats or humans as follows:
(i) The compounds of the formula (I) may be tested for their potency in inhibiting rat steroid 5α-reductase using ventral prostate tissue from male rats. In determining inhibitory potency against rat prostatic 5α-reductase the following procedure was employed:
Rat prostates were minced into small pieces. The tissue was homogenised in Buffer A (20 mM sodium phosphate, pH 6.5, buffer containing 0.32M sucrose and 1 mM dithiothreitol) with a Brinkman Polytron (Kinematica, Luzern, GmBH), and then homogenised with a motor driven (1000 rpm) Potter Elvehjem (teflon-to-glass) homogeniser. Prostate particles were obtained by centrifugation at 105,000 G for 60 minutes. The pellet was washed in 4 volumes of Buffer A and recentrifuged at 105,000 G. The resulting pellet was dispersed in Buffer A (1 ml per g of prostate tissue originally used) with a motor driven Potter Elvehjem homogeniser as described above. The particulate suspension was stored as 1 ml samples at -70° C.
The following components, dissolved in Buffer B (40 mM sodium phosphate buffer, pH 6.5), were added to test tubes: 500 μl of [^3 H]-testosterone (1 μCi, 1 nmol; Du Pont, NEN Research Products, Stevenage, U.K.), 100 μl of 0.5 mM NADPH, a compound of the formula (I) dissolved in 5 μl of dimethyl sulphoxide, and Buffer B to give a final reaction volume of 1 ml. The mixture was warmed to 37° C. and the reaction started by addition of an aliquot of prostate particulate suspension. The reaction mixture was incubated at 37° C. for 30 minutes and then quenched by addition with vigorous mixing of 2 ml of ethyl acetate containing 20 μg each of testosterone and 5α-dihydrotestosterone as carriers. The aqueous and organic layers were separated by centrifugation at 2000 G for 10 minutes. The organic layer was transferred to a second test tube and evaporated to dryness under nitrogen. The residue was dissolved in 50-80 μl of absolute ethanol and spotted onto a silica gel 60 F254 TLC plate (E. Merck, Darmstadt, Germany) and developed in chloroform:acetone (185:15).
The radiochemical content in the bands of the substrate (testosterone) and the product (5α-dihydrotestosterone) were determined with a RITA Radio TLC Analyser (Raytest Instruments Ltd., Sheffield, U.K.). The percent of recovered radiolabel converted to 5α-dihydrotestosterone was calculated and used to determine enzyme activity. All incubations were conducted so that no more than 15% of substrate (testosterone) was converted to product.
The experimentally obtained data for a range of inhibitor concentrations was computer fitted to a sigmoidal dose-response curve and concentrations of compound giving 50% inhibition of 5α-reductase activity (IC50 's) were calculated using a SIGFIT program (De Lean, A., Munson, P. J. and Rodbard, D., American Journal of Physiology, 235, E97 (1978)).
A selection of compounds of the formula (I) was tested in vitro for steroid 5α-reductase inhibitory activity using ventral prostate tissue from male rats according to the procedure outlined on pages 35 to 37 of the description.
Take `O=C(O)CCCn1cc(C(=O)c2ccc3c(c2)OC(c2ccc(F)cc2)(c2ccc(F)cc2)O3)c2ccccc21` [Example 7]: half-maximal inhibition (IC50) required 0.0107 µM. `COc1ccc(C2(C)Oc3ccc(C(=O)c4cn(CCCC(=O)O)c5ccccc45)cc3O2)cc1` (centres unmarked) [Example 29] came in with an IC50 of 0.00367 µM. The same measure, in the same setting: for `O=C(O)CCCn1cc(C(=O)c2ccc3c(c2)OC(c2ccccc2)(c2ccccc2)O3)c2ccccc21` [Example 1] the value was 0.0027 µM. The same measure, in the same setting: the value for `O=C(O)CCCCn1cc(C(=O)c2ccc3c(c2)OC(c2ccccc2)(c2ccccc2)O3)c2ccccc21` [Example 34] was 0.264 µM; that for `O=C(O)CCCn1cc(C(=O)Cc2ccc3c(c2)OC(c2ccc(Cl)cc2)(c2ccc(Cl)cc2)O3)c2ccccc21` [Example 37] was 0.1 µM. Still for that read-out and setting: for `CCCc1ccc(C2(CC)Oc3ccc(C(=O)c4cn(CCCC(=O)O)c5ccccc45)cc3O2)cc1` (centres unmarked) [Example 27] the value was 0.00141 µM; for `CCCc1ccc(C2(c3ccc(OC)cc3)Oc3ccc(C(=O)c4cn(CCCC(=O)O)c5ccccc45)cc3O2)cc1` (centres unmarked) [Example 45], 0.00784 µM. With `O=C(O)CCCn1cc(C(=O)c2ccc3c(c2)OC2(CCC(c4ccccc4)C2)O3)c2ccccc21` (centres unmarked) [Example 31], it took 0.00556 µM to reach half-maximal inhibition (IC50). This IC50 and that of the molecule before are within 1.5-fold of each other.

With `CC(C)Cc1ccc(C2(C)Oc3ccc(C(=O)c4cn(CCCC(=O)O)c5ccccc45)cc3O2)cc1` (racemic) [Example 2, 4-[3-([2-methyl-2-(4-[2-methylpropyl]phenyl)-1,3-benzodioxolan-5-yl]carbonyl)indol-1-yl]butanoic acid], the midpoint of inhibition, the IC50, lay at 0.0114 µM.

In turn, `CC1(c2ccc(OCc3ccccc3)cc2)Oc2ccc(C(=O)c3cn(CCCC(=O)O)c4ccccc34)cc2O1` (centres unmarked) [Example 9] had an IC50 of 0.0675 µM. On the same count and under the same terms, the value for `CC(C)Cc1ccc(C2(C)Oc3ccc(CC(=O)c4cn(CCCC(=O)O)c5ccccc45)cc3O2)cc1` (centres unmarked) [Example 36] was 0.251 µM; that for `CCCc1ccc(C2(c3ccc(CCC)cc3)Oc3ccc(C(=O)c4cn(CCCC(=O)O)c5ccccc45)cc3O2)cc1` [Example 5] was 0.0337 µM. The same measure, in the same setting: the value for `CC1(C2CCCCC2)Oc2ccc(C(=O)c3cn(CCCC(=O)O)c4ccccc34)cc2O1` (centres unmarked) [Example 19] was 0.011 µM. On the same count and under the same terms, for `O=C(O)CCCn1cc(C(=O)c2ccc3c(c2)OC(c2ccc(Cl)cc2)(c2ccc(Cl)cc2)O3)c2ccccc21` [Example 6] the value was 0.0156 µM. Regarding `CCCCC1(c2ccc(CCC)cc2)Oc2ccc(C(=O)c3cn(CCCC(=O)O)c4ccccc34)cc2O1` (centres unmarked) [Example 8], the IC50 is 0.0029 µM. On the same count and under the same terms, the value for `O=C(O)CCCn1cc(C(=O)c2ccc3c(c2)OC2(CCCc4ccccc42)O3)c2ccccc21` (centres unmarked) [Example 10] was 0.00791 µM. Still for that read-out and setting: for `CC(C)Cc1ccc(C2(C)Oc3ccc(C(=O)c4cn(CCCC(=O)O)c5ccccc45)cc3O2)cc1` (single isomer, unassigned; (-)) [Example 4, (-)-4-[3-([2-methyl-2-(4-[2-methylpropyl]phenyl)-1,3-benzodioxolan-5-yl]carbonyl)indol-1-yl]butanoic acid] the value was 0.0103 µM; for `O=C(O)CCCn1cc(C(=O)Cc2ccc3c(c2)OC(c2ccccc2)(c2ccccc2)O3)c2ccccc21` [Example 35], 0.0426 µM. The same measure, in the same setting: for `Cc1c(C(=O)c2ccc3c(c2)OC(c2ccccc2)(c2ccccc2)O3)c2ccccc2n1CCCC(=O)O` [Example 39] the value was 0.27 µM. In the case of `O=C(O)CCCn1cc(C(=O)c2ccc3c(c2)OC(c2cccs2)(c2cccs2)O3)c2ccccc21` [Example 15], the IC50 came out at 0.00529 µM. On the same count and under the same terms, the value for `Cc1c(C(=O)c2ccc3c(c2)OC(C)(c2ccc(CC(C)C)cc2)O3)c2ccccc2n1CCCC(=O)O` (centres unmarked) [Example 40] was 0.26 µM; that for `CC1(c2ccccc2)Oc2ccc(C(=O)c3cn(CCCC(=O)O)c4ccccc34)cc2O1` (centres unmarked) [Example 14] was 0.0211 µM.

A further data set deals with mice. Nature of the data set: Toxicity Study, oral administration to mice. Type of data set: in vivo. To be noted: up to a dose of 1000 mg/kg, throughout the duration of the study.
Take `CC(C)Cc1ccc(C2(C)Oc3ccc(C(=O)c4cn(CCCC(=O)O)c5ccccc45)cc3O2)cc1` (single isomer, unassigned; (-)) [Example 4, (-)-4-[3-([2-methyl-2-(4-[2-methylpropyl]phenyl)-1,3-benzodioxolan-5-yl]carbonyl)indol-1-yl]butanoic acid]: the appearance and behaviour result was “normal appearance and behaviour”.

Broadly, the IC50 is the point on the concentration scale where inhibition reaches its midpoint. A high value points to weaker potency.
